Where two headings read alike, the source gives them in different places.
What was measured:
[1] = biological target: T1, RORγ (UniProt P51449); test: RORγ Gal4 Reporter Gene Assay in 293T cells (firefly and renilla luciferase); type: cell-based, human
T1 sequence (P51449 1-518): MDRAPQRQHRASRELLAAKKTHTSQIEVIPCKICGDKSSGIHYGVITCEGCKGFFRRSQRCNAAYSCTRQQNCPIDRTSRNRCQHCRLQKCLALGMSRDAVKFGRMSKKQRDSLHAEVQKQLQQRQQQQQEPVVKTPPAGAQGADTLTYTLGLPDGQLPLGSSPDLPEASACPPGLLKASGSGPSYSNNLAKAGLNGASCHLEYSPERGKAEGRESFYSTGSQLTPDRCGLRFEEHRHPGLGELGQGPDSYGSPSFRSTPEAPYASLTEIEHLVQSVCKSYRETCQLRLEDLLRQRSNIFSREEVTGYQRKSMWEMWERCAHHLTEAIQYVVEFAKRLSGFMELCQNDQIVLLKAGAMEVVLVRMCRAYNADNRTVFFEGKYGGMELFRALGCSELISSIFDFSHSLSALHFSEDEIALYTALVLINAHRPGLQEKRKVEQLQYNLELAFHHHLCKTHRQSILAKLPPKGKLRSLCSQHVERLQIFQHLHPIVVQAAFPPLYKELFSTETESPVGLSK

[2] = biological target: T2, RORγ ligand binding domain (LBD) (Homo sapiens, UniProt P51449); test: TR-FRET Activity Assay (ligand sensing, RORγ-LBD / coactivator peptide interaction, LANCE); type: biochemical
T2 construct: made in house; host or cells: E. coli BL-21 (BL3), vector pDEST15
T2 sequence (P51449 269-508 limits assumed): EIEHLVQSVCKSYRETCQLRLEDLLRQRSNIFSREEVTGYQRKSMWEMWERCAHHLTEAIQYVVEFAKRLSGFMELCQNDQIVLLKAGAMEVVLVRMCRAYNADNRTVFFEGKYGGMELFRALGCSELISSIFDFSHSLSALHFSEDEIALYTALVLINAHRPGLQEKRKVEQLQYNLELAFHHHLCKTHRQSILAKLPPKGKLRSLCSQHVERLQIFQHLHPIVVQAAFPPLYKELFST

[3] = second value of the cell, Gal4 reporter gene assay in 293T cells, firefly luciferase
[4] = third value of the cell, Gal4 reporter gene assay in 293T cells, renilla normalised luciferase
[5] = first value of the cell FRET/FF/REN, TR-FRET activity assay, read-out: pIC50 (FRET) (converted)

Row | SMILES | pIC50 (FF) [1] | pIC50 (REN) [1] | IC50 [2] | pIC50 (FF) [1, 3] | pIC50 (REN) [1, 4] | IC50 [2, 5]
1 | Cc1c(C(=O)NCC(C)(C)O)cc(-c2cc(C3(C)CC3)nc(C(C)(C)C)n2)n1CC1CCCCC1 [17/355] | 6.5/6.6/6.6 | 6.5/6.6/6.6 | 316 nM |  |  | 
2 | Cc1c(C(=O)NCC(C)(C)C(=O)O)cc(-c2cc(C(C)(C)C)cc(C3(C)CC3)c2)n1CC1CCCCC1 [17/60] |  |  |  | 7.6 | 7.6 | 1580 nM
3 | Cc1c(C(=O)N[C@H]2C[C@H](C(=O)O)C2)cc(-c2cc(NCC(C)(C)C)nc(C(C)(C)C)c2)n1CC1CCCCC1 [17/196] |  |  |  | 7.0 | 7.0 | 3980 nM
4 | Cc1c(C(=O)NC2CCOCC2)cc(-c2cc3c(c(C(C)(C)C)c2)OCCC3O)n1CC1CCCCC1 (stereo not drawn) [17/105] |  |  |  | 6.1 | 6.3 | 2000 nM
5 | Cc1c(C(=O)NC2CCOCC2)cc(-c2cc(C(=O)NC(C)(C)C)cc(C(C)(C)O)c2)n1CC1CCCCC1 [17/322] |  |  |  | 5.9 | 6.0 | 3980 nM
6 | Cc1c(C(=O)N2CCC(C)(O)CC2)cc(-c2cc(C(C)(C)C)cc(C(C)(C)C)c2)n1CC1CCCCC1 [1/37] |  |  |  | 6.8 | 6.8 | 316 nM
7 | Cc1c(C(=O)NC2CCOCC2)cc(-c2ccc(S(=O)(=O)NC3CCC3)c(C(C)(C)C)c2)n1CC1CCCCC1 [17/228] |  |  |  | 7.7 | 7.7 | 398 nM
8 | Cc1c(C(=O)NC[C@H](C)O)cc(-c2cc(C(C)(C)C)cc(C(C)(C)C)c2)n1CC1CCCCC1 [1/60] |  |  |  | 6.2 | 6.2 | 1000 nM
9 | Cc1c(C(=O)NC2C[S+]([O-])C2)cc(-c2cc(C(C)(C)C)cc(C(C)(C)C)c2)n1CC1CCCCC1 (stereo not drawn) [Example 2, 1-(Cyclohexylmethyl)-5-(3,5-di-tert-butylphenyl)-2-methyl-N-(1-oxidothietan-3-yl)-1H-pyrrole-3-carboxamide] |  |  |  | 7.0 | 7.0 | 251 nM
10 | Cc1c(C(=O)NCCC(C)(C)C(=O)O)cc(-c2ccc(S(=O)(=O)NC(C)(C)C)c(OC(F)F)c2)n1CC1CCCCC1 [17/167] |  |  |  | 6.6 | 6.8 | 794 nM
11 | Cc1c(C(=O)NCCS(C)(=O)=O)cc(-c2cc(C(C)(C)C)c3c(c2)C2(CCO3)CC2)n1CC1CCCCC1 [1/104] | 6.3/6.8/6.8 | 6.3/6.8/6.8 | 501 nM |  |  | 
12 | Cc1c(C(=O)NCC2(C(N)=O)CCOCC2)cc(-c2ccc(S(=O)(=O)NC(C)(C)C)c(C(C)(C)C)c2)n1CC1CCCCC1 [17/90] | 5.8/7.9/8.0 | 5.8/7.9/8.0 | 1580 nM |  |  | 
13 | Cc1c(C(=O)NCC(C)(C)O)cc(-c2cc(C(=O)NC(C)C)cc(C3(C)CC3)c2)n1CC1CCCCC1 [1/112] |  |  |  | 7.1 | 7.1 | 501 nM
14 | Cc1c(C(=O)NCC2COC2)cc(-c2cc(C(C)(C)C)cc(C(C)(C)C)c2)n1CC1CCCCC1 [17/43] |  |  |  | 7.4 | 7.4 | 200 nM
15 | Cc1c(C(=O)NCC(F)(F)F)cc(-c2cc(C(C)(C)C)c(O)c(C(C)(C)C)c2)n1CC1CCCCC1 [1/48] |  |  |  | 6.4 | 6.4 | 631 nM
16 | Cc1c(C(=O)NC2CCOCC2)cc(-c2ccc(S(=O)(=O)NC(C)(C)C)c(C(F)(F)F)c2)n1CC1CC(C)C1 (stereo not drawn) [17/177] |  |  |  | 7.3 | 7.4 | 158 nM
17 | Cc1c(C(=O)NCC(C)(C)C(=O)O)cc(-c2cc(C(=O)NC(C)(C)C)cc(C3(C)CC3)c2)n1CC1CCCCC1 [17/338] |  |  |  | 7.2 | 7.2 | 3160 nM

Row | SMILES | pIC50 (FF) [1] | pIC50 (REN) [1] | IC50 [2] | pIC50 (FF) [1, 3] | pIC50 (REN) [1, 4] | IC50 [2, 5]
18 | Cc1c(C(=O)NCCC(=O)O)cc(-c2cc(C(C)(C)C)c3c(c2)C2(CCO3)CC2)n1CC1CCCCC1 [1/90] |  |  |  | 7.0 | 6.9 | 2000 nM
19 | Cc1c(C(=O)NCC2(O)CCOCC2)cc(-c2cc(C(C)(C)C)c3c(c2)C2(CCO3)CC2)n1CC1CCCCC1 [1/99] | 6.4/7.1/7.2 | 6.4/7.1/7.2 | 398 nM |  |  | 
20 | Cc1c(C(=O)N[C@H]2C[C@H](C(=O)O)C2)cc(-c2cc(C(C)(C)C)nc(C3(C)CC3)n2)n1CC1CCCCC1 [17/312] |  |  |  | 7.2 | 7.3 | 316 nM
21 | COCCS(=O)(=O)NC(C)(C)CNC(=O)c1cc(-c2cc(C(C)(C)C)c3c(c2)C2(CCO3)CC2)n(CC2CCCCC2)c1C [17/32] | 6.7/7.2/7.2 | 6.7/7.2/7.2 | 200 nM |  |  | 
22 | Cc1c(C(=O)NCCC(=O)O)cc(-c2cc(C(C)(C)C)cc(C(C)(C)C)c2)n1CC1CCCCC1 [1/68] |  |  |  | 6.7 | 6.8 | 1580 nM
23 | Cc1c(-c2cc(C(=O)NC3CCOCC3)c(C)n2CC2CCCCC2)ccc(S(=O)(=O)NC(C)(C)C)c1C [17/273] |  |  |  | 7.2 | 7.3 | 1580 nM
24 | Cc1c(C(=O)NCC(C)(C)O)cc(-c2ccc(S(=O)(=O)NC(C)(C)C)c3ccccc23)n1CC1CCC(F)CC1 (stereo not drawn) [17/374] |  |  |  | 7.3 | 7.3 | 1580 nM
25 | Cc1c(C(=O)NCC(C)(C)C(=O)O)cc(-c2ccc(S(=O)(=O)NC(C)(C)C)c(C(C)(C)O)c2)n1CC1CCCCC1 [17/327] |  |  |  | 6.8 | 6.9 | 794 nM
26 | Cc1c(C(=O)NC2CCOCC2)cc(-c2ccc(S(=O)(=O)NC(C)(C)C)c(C(F)(F)F)c2)n1CC1CCC(F)(F)CC1 [17/256] |  |  |  | 6.8 | 7.0 | 631 nM
27 | Cc1c(C(=O)N[C@H]2C[C@H](C(=O)O)C2)cc(-c2cc(C(C)(C)C)nc(C3(C)CC3)c2)n1CC1CCCCC1 [17/292] |  |  |  | 7.5 | 7.4 | 1260 nM
28 | Cc1c(C(=O)NCC(O)(C(F)(F)F)C(F)(F)F)cc(-c2cc(C(C)(C)C)cc(C(C)(C)C)c2)n1CC1CCCCC1 [1/113] |  |  |  | < 4.7 | < 4.7 | 3980 nM
29 | Cc1c(C(=O)NC2COC2)cc(-c2cc(C(C)(C)C)cc(C(C)(C)C)c2)n1CC1CCCCC1 [1/53] | 6.8/7.3/7.4 | 6.8/7.3/7.4 | 158 nM |  |  | 
30 | CC(C)(C)NS(=O)(=O)c1ccc(-c2cc(C(=O)NC3CCOCC3)c(CO)n2CC2CCCCC2)cc1C(C)(C)C [17/117] | 6.0/7.6/7.7 | 6.0/7.6/7.7 | 1000 nM |  |  | 
31 | Cc1c(C(=O)NCC(C)(C)C(=O)O)cc(-c2cc(C(C)(C)C)nc(C(C)(C)C)n2)n1CC1CCCCC1 [17/353] |  |  |  | 6.8 | 6.8 | 2000 nM
32 | Cc1c(C(=O)NC2CCOCC2)cc(-c2ccc(S(=O)(=O)NC(C)(C)C)c(C(F)(F)F)c2)n1CC1CCC(F)CC1 (stereo not drawn) [17/257] | 6.3/7.4/7.6 | 6.3/7.4/7.6 | 501 nM |  |  | 
33 | Cc1c(C(=O)NCCc2noc(=O)[nH]2)cc(-c2cc(C(C)(C)C)cc(C3(C)CC3)c2)n1CC1CCCCC1 [17/178] |  |  |  | 7.9 | 7.9 | 794 nM
34 | COC(=O)CC1(NC(=O)c2cc(-c3cc(C(C)(C)C)cc(C(C)(C)C)c3)n(CC3CCCCC3)c2C)COC1 [17/46] |  |  |  | 6.5/6.5/6.5 | 6.5/6.5/6.5 | 316 nM
